In a melting point compilation (Tetko et al.; mined from patent text by program, amines drawn as free bases though some values may be those of a salt) one finds melting point data, which are given here for 89 molecules.

Each structure is given as a SMILES string. Counter-ions that a name gives are not always drawn. Residues, ends and D or L forms follow the SMILES beside them. *: point of attachment. Tfa = O=C(C(F)(F)F)*; NHPh = c1ccc(N*)cc1 Some results are limits rather than exact numbers.

In the case of `[N-]=[N+]=N[C@@H](Cc1ccccc1)[C@H](O)CO`, the melting point (as a rule, the temperature, or range, at which the solid turns liquid) fell in the range of 83 to 84 °C.
Regarding `NC(=S)C(c1ccc(Cl)cc1)c1c(Cl)cc(-n2ncc(=O)[nH]c2=O)cc1Cl` (centres undefined), the melting point was 263 °C.
In the case of `CC(CCO)N1CCC(Cc2ccccc2)CC1` (centres undefined) it was 74 to 76 °C.
Molecule `Cn1ncc(/C=C/C(=O)Nc2ccc(CC(=O)NN)cc2)c1-c1ccc(F)cc1` displayed a melting point of 273 to 274 °C.
`CCCCCCCCCCCCCCCCCCNC(=O)OCC(CNS(=O)(=O)CCCI)OC(=O)NC` (centres undefined) showed a melting point of 97 to 99 °C.
The same measure for `COC(=O)c1cc2ccc(C(=O)NCCc3ccccn3)cc2[nH]1`: 191 to 193 °C.
In the case of `OCc1cc(I)ccc1O` it was 105 to 110 °C; in that of `CC1(C(=O)O)OCCC2=CC3=CC=CCC3=C21` (centres undefined), 171 to 173 °C.
`Nc1ccc(S(=O)(=O)c2cc(-c3ccsc3)nc(N3CCCC3)c2)cc1` came in with a melting point of 260 °C.
In turn, `CN(C)C1(c2ccccc2)CCC(CNC(=O)N2CCC(c3c[nH]c4ccc(F)cc34)CC2)CC1` (centres undefined) returned a melting point of 95 to 98 °C.
With `Cc1c(NC(=O)c2cc3c(s2)CCCC3)cccc1-c1cn(C)c(=O)c(Nc2ccc([C@@H](C(=O)N(C)C)N(C)C(C)C)cc2)n1`, the melting point lay in the range of 133 to 134 °C.
Molecule `Cn1nnc(-c2ccc3c(c2)c(C2CCN(CCN4CCNC4=O)CC2)cn3-c2ccncc2)n1` returned a melting point of 204 to 206 °C.
The molecule `COc1cc(C(=S)N2CCNCC2)cc(OC)c1OC` showed a melting point of 116 to 118 °C.
The same measure for `CN(C)Cc1nc(CSCCNC(=C[N+](=O)[O-])NCC(O)c2ccccc2)cs1` (centres undefined): 100 to 101 °C; for `CC1(C)Oc2ccsc2C(N2CCCC2=O)C1O` (centres undefined): 154 to 155 °C; for `O=S1(=O)N=C(NCC2CC2)Nc2ccc(Cl)cc21`: 288 to 290 °C.
The molecule `CC(=O)Nc1ncsc1-c1ccccc1` yielded a melting point of 105 to 107 °C.
`CCOC(=O)C(O)=CC(=O)c1c[nH]c2ccccc12` gave a melting point of more than 300 °C.
Consider `CC(C)n1nc(-c2sc(C(=O)NCc3ccccn3)nc2-c2cccc(F)c2)ccc1=O`, for which the melting point was in the range of 188 to 190 °C.
Turning to `Cc1nc2c(s1)-c1nc(N)ncc1CC2`, the melting point fell in the range of 241 to 243 °C.
`COC(=O)CNC(=O)[C@H](NC(=O)OCC1c2ccccc2-c2ccccc21)C(C)C` displayed a melting point of 148 to 150 °C.
Take `CCC(O)(CC)c1cc(C)c(-c2cccc(OCc3ccc(CO)c(CO)c3)c2C)c(C)c1`: the melting point was 105 to 107 °C.
`COCCOC1CC(c2ccccc2)Oc2c1ccc1c2nc(C)n1C` (centres undefined) gave a melting point of 148 to 149 °C.
Molecule `Cc1cccc(NC(=O)c2ccccc2SSc2ccccc2C(=O)Nc2cccc(C)c2)c1` registered a melting point of 193 to 195 °C.
Regarding `COC(=O)C(=O)N1C(=O)[C@H](N2C(=O)c3ccccc3C2=O)[C@H]1Cl`, the melting point was 49 to 52 °C.
As for `COc1cc2c(cc1OC)C(=O)C(=Cc1cc(Cl)cc(Cl)c1)C2`, the melting point stood at 227 °C.
`COC(=O)NC(=NS(=O)(=O)NC(C)C)OC(C)C` yielded a melting point of 62 to 64 °C.
The same measure for `COC(=O)c1ccc(Cn2nc(Cl)c3ccc([N+](=O)[O-])cc32)c(OC)c1`: 131 to 132 °C; for `N#Cc1ccc(Nn2ccnc2)cc1`: 162 °C.
Regarding `COc1cc(C)c(NS(=O)(=O)N(C)C)cc1C(=O)NCC1CCCO1` (centres undefined), the melting point was in the range of 130 to 131 °C.
The same measure for `CCOC(=O)c1ncc2[nH]c3ccc(I)cc3c2c1COC`: 204 to 206 °C.
In the case of `COC(=O)c1cncc(-c2ccc(OC)c([N+](=O)[O-])c2)c1`, the melting point fell in the range of 192 to 194 °C.
On to `CC(=O)OC1CCC2C3CCC4CC(O[Si](C)(C)C(C)(C)C)CCC4C3CCC12C` (centres undefined), for which the melting point is 89 to 90 °C.
In the case of `Cc1c(SCCCSCc2ccncc2)ccnc1CNc1ncncc1Cl` it was 148 to 149 °C.
Regarding `CCOC(=O)CNC(=O)Nc1ccc(C#N)cc1`, the melting point was in the range of 140 to 144 °C.
Turning to `CCCC(=O)Nc1cc(Oc2ccc(Cl)cc2)ccc1NC(=NC(=O)OC)NC(=O)OC`, the melting point worked out at 201 °C.
The same measure for `CCCCCCC(C(=O)Nc1ccccc1O)n1cnc(NC(=O)c2ccccc2S(=O)(=O)O)c1` (centres undefined): 138 to 147 °C.
In turn, `CCC(=C(c1ccc(O)cc1)c1ccc(O)cc1)c1cccc(/C=C/C(=O)O)c1` had a melting point of 280 to 281 °C.
In turn, `CC(COc1ccc(CC(N)=O)cc1Cl)NCC(O)c1cccc(Cl)c1` (centres undefined) came in with a melting point of 99 to 101 °C.
Consider `COC(=O)C=Cc1cc(-c2nn(C)c(C(F)(F)F)c2Cl)c(F)cc1Cl`, for which the melting point is 117 °C.
In the case of `CC(C)(C)OC(=O)n1cc(C(=O)C2CSC(c3cccnc3)N2C(N)=O)c2ccccc21` (centres undefined) it was 141 to 143 °C; in that of `CCCCOC(=O)Nc1nc(C(=NOC2CCCC2)C(=O)OC)ns1`, 115 to 118 °C.
`CN1CC(c2ccno2)CC2c3cccc4[nH]cc(c34)CC21` (centres undefined) returned a melting point of 132 to 134 °C.
With `COCc1c[nH]c(-c2ccc(OCc3ccccc3)cc2)n1`, the melting point fell in the range of 146 to 148 °C.
As for `NCCCN1CCC(c2c[nH]c3cc(F)ccc23)CC1`, the melting point worked out at 102 °C.
As for `Cc1ccc2sc3nncn3c2c1C`, the melting point was in the range of 226 to 228 °C.
The molecule `CCOC(=O)c1cn(-c2ccc(C(F)(F)F)cc2)nc1C(C)C` showed a melting point of 74 to 75 °C.
For `CCCC1C(=O)N(S(C)(=O)=O)C2CCN(S(C)(=O)=O)C12` (centres undefined), the melting point was 205 to 208 °C.
As for `Cc1ccc(N2C(=O)NC(=O)C23CCN(C(=O)c2ccccc2)CC3)cc1`, the melting point is 242 to 244 °C.
The same measure for `CC(=O)Nc1nnc2c3c(c(N4CCCCC4)nn12)CCCC3`: 214 to 216 °C; for `C[C@H](NC(=O)C(F)(F)F)C(=O)N1CCC[C@H]1C(=O)Nc1ccccc1` (Tfa-Ala-Pro-NHPh): 204 to 207 °C.
With `CN1c2ccccc2C(c2ccccc2F)=NCC1CNC(=O)C(Cc1c[nH]c2ccccc12)NC(=O)OC(C)(C)C` (centres undefined), the melting point worked out at 124 °C.
Consider `CC(=O)OCc1c(CNC(=O)c2ccc(C(=O)O)cc2)ccc2c1C(C)(C)CCC2(C)C`, for which the melting point lay in the range of 95 to 100 °C.
Consider `CC=Cc1c(-c2ccc(S(C)(=O)=O)cc2)cnn(-c2ccc(F)c(F)c2)c1=O`, for which the melting point lay in the range of 149 to 150 °C.
With `C=CN1NCC2CC3=C(C=CC(c4ccc(F)cc4)C3)CC21C` (centres undefined), the melting point fell in the range of 70 to 72 °C.
Molecule `CN(C)Cc1ccc(CSCCNC2=NS(=O)N=C2N)o1` (centres undefined) showed a melting point of 139 to 142 °C.
The molecule `Cc1ccc(-c2nc(C)nn2-c2ccc(S(N)(=O)=O)cc2)cc1` returned a melting point of 248 to 249 °C.
`COc1ccc2c(c1)nnc1c(C)nc(-c3cc(Cl)ccc3Cl)n12` came in with a melting point of 144 to 147 °C.
In the case of `CCC(=O)OC1(C(=O)CCl)C(C)CC2C3CCC4CC(=O)CCC4(C)C3(F)C(=O)CC21C` (centres undefined) it was 184 to 186 °C.
The molecule `N#Cc1c(N2CCCCC2)cc(-c2cccc3ccccc23)c2c1C(=O)c1ccccc1-2` yielded a melting point of 202 to 204 °C.
Take `CC(C)(Nc1c(Cl)cccc1[N+](=O)[O-])C(=O)O`: the melting point is 107 to 109 °C.
On to `CCc1ccc2[nH]c(C(=O)OC)cc2c1`, for which the melting point turned out to be 112 °C.
`CC(C)(C)N(NC(=O)c1ccccc1)C(=O)c1ccncc1` had a melting point of more than 210 °C.
`O=c1oc2ccccc2n1Sc1ccc(Cl)cc1` returned a melting point of 134 to 137 °C.
In the case of `COc1cc(OCCBr)ccc1C=O` it was 78 to 79 °C; in that of `CCOCCn1c(NC2CCN(CC#N)CC2)nc2cccnc21`, 141 °C.
The molecule `CC(C)(F)[C@H]1C(=O)N[C@@H]1CC(=O)O` (racemic) came in with a melting point of 118 to 122 °C.
In the case of `CC(=O)NNC(=O)c1[nH]c2ccccc2c1Cl` it was 253 to 255 °C.
As for `CSC1=NC2=NC3=C(CNCC3=O)CN2N1`, the melting point was 266 to 269 °C.
For the molecule `COc1nc2ccccc2cc1NC(=S)N1CCN(c2cc(F)cc(F)c2)CC1`, the melting point fell in the range of 140 to 142 °C.
The same measure for `CCOC(=O)c1cn(C)c2cc(C(F)(F)F)ccc2c1=O`: 222 to 224 °C.
`COCC(=O)Nc1nc2ccc([N+](=O)[O-])cc2s1` yielded a melting point of 230 to 233 °C.
The same measure for `COC(=O)N=c1[nH]c2ccccc2n1C1CCN(Cc2ccccc2)CC1`: 170 °C; for `COc1ccc(Cc2oc3ccc(OC)cc3c2CC#N)cc1`: 83 °C.
Take `Cn1cc(C(=O)CN2CCN(c3ncccn3)CC2)cc1C(=O)c1ccc([N+](=O)[O-])cc1`: the melting point lay in the range of 164 to 166 °C.
In the case of `Cc1nn(-c2ccc(F)cc2)c(C)c1C(=O)Nc1ccc(OCC(C)(C)C)c(C#N)c1` it was 174 to 175 °C.
As to `CCc1oc2ccccc2c1C(=O)c1ccc(Br)c(S(N)(=O)=O)c1`, the melting point is 202 to 206 °C.
Take `CCOP(=O)(Cc1ccc(NC(=O)C(Cc2ccccc2)C(=O)O)cc1)OCC` (centres undefined): the melting point lay within 160 to 161 °C.
`Cc1cc(C)cc(N(CCO)Cc2ccc3nc(NCCCN4CCOCC4)n(Cc4nc(C)c(C)nc4C)c3c2)c1` yielded a melting point of 140 °C.
The same measure for `Oc1ccccc1-c1ncc2ncc(Cl)cc2n1`: 211 to 212 °C; for `Cc1cc(-c2ccc(C(F)(F)F)cc2)nc2c(-c3nc(-c4ccc(S(N)(=O)=O)s4)no3)cnn12`: 276 °C.
On to `Cc1ccc(CN(CCCC(N)=O)Cc2ccc(C)cc2)cc1`, for which the melting point is 85 to 86 °C.
In the case of `Nc1nc2ccccc2c2c1ncn2CC1(O)CCC1` it was more than 250 °C; in that of `N#CCC1(O)CCc2ccccc2C12CCCC2` (centres undefined), 165 to 166 °C; in that of `COCCOc1ccc(-c2cncc(C#N)c2Nc2ccc3[nH]ccc3c2C)cc1OC`, 208 to 210 °C.
`COCc1cc(Cl)n2nc(SC)c(S(=O)(=O)c3ccccc3)c2n1` yielded a melting point of 194 to 197 °C.
Molecule `CC(C)(C1CC1)C(O)(Cn1cncn1)c1ccc(Cl)cc1` (centres undefined) returned a melting point of 88 to 90 °C.
`CCc1ccc2c(c1)cc(C(=O)Nc1nc(-c3c(OC)cc(C)cc3OC)n(CCC3CCCCC3)n1)n2CC(=O)O` had a melting point of 198 °C.
Molecule `O=C(Cc1ccccc1)c1ccc(C(F)(F)F)cc1` registered a melting point of 127 to 128 °C.
